Tested on: protein kinases (human kinome)
Format: cell-based
Conditions: for kinases the bifunctional compound degrades: as stated for the structure in the embodiments; for Kinase hits: kinases significantly downregulated vs DMSO (fold change cutoff −1.25, P-value<0.01), ≤8 h, 0.1-5 μM degrader, 7 cell lines; for Total no. kinase hits: number of degraded kinases per library compound
Description: Although development of targeted protein degraders requires a POI binder, among already-liganded proteins such as kinases, it was hypothesized that different targets would have a different propensity for current approaches to degrader-mediated destruction, which was termed ‘degradability’. […] It was rationalized that the probability of identifying the same kinase as a false positive in multiple treatments is low, therefore this analysis served to also assess the robustness of our data and subsequent interpretations. […] Overall, 62 protein kinases were degraded in more than 10 independent treatments, and remarkably, 9 of these (CDK4, AURKA, FER, WEE1, BLK. LIMK2, CDK6, GAK, LIMK1) were each degraded in at least 40 of the 154 independent treatments, emphasizing their predisposition to induced degradation (FIG. 1G; Appendix I).
Next, the frequency of degradation assessment was corrected for over-representation of molecules in the full dataset by omitting replicate profiling of compounds under different experimental conditions, to remove any bias. […] Unsurprisingly, the top degradable kinases mirror those from the previous analysis (CDK4, AURKA, FER, WEE1, BLK), confirming that in sufficiently large datasets, even with over-representation of certain molecules, frequency of degradation is a good measure of general tractability.

CCc1cnn2c(N(Cc3ccc(N)nc3)C(=O)CCOCCOCCOCCNC(=O)CNc3cccc4c3C(=O)N(C3CCC(=O)NC3=O)C4=O)cc(N3CCCC[C@H]3CCO)nc12 (stereo partly shown) [MFH-5-115-2]
kinases the bifunctional compound degrades: CDK4. AURK4. WEE1. STK17A, PLK1, BUB1, TTK, UHMK1, MAP3K1, BUB1B, RIOK2, NUAK1, PIM2, and CSNK1A1 | Kinase hits: CDK4, AURK4, WEE1, STK17A, PLK1, BUB1, TTK, UHMK1, MAP3K1, BUB1B, RIOK2, NUAK1, PIM2, CSNK1A1 | Total no. kinase hits: 14

Cc1ncsc1-c1ccc([C@H](C)NC(=O)[C@@H]2C[C@@H](O)CN2C(=O)[C@@H](NC(=O)CCOCCOCCN2CCN(c3ccc(Nc4ncc(Cl)c(Nc5ccccc5S(=O)(=O)C(C)C)n4)cc3)CC2)C(C)(C)C)cc1 [FMF-06-098-1, (2S,4R)-1-((S)-2-(3-(2-(2-(4-(4-((5-chloro-4-((2-(isopropylsulfonyl)phenyl)amino)pyrimidin-1320 2-yl)amino)phenyl)piperazin-I-yl)ethoxy)ethoxy)propanamido)-3,3-dimethylbutanoyl)-4-1321 hydroxy-N—((S)-1-(4-(4-methylthiazol-5-yl)phenyl)ethyl)pyrrolidine-2-carboxamide]
kinases the bifunctional compound degrades: AAK1, ABL2, AURKA, AURKB, BUB1B, CDC7, CDK1, CDK12, CDK13, CDK2, CDK4, CDk6, CDK7, CDK9, CHEK1, CSNK1D. EPHA1, FER, FGFR1, GAK, IRAK4, ITK, LIMK2, MAP4K2, MAP4K3, MAPK6, MAPK7, MARK4, MELK, PKN3, PLK4, PRKAA1, PTK2, PTK6, RPS6KA4, SIK2, STK35, TNK2. UHMK1, ULK1, and WEE1 | Kinase hits: AAK1, ABL2, AURKA, AURKB, BUB1B, CDC7, CDK1, CDK12, CDK13, CDK2, CDK4, CDk6, CDK7, CDK9, CHEK1, CSNK1D, EPHA1, FER, FGFR1, GAK, IRAK4, ITK, LIMK2, MAP4K2, MAP4K3, MAPK6, MAPK7, MARK4, MELK, PKN3, PLK4, PRKAA1, PTK2, PTK6, RPS6KA4, SIK2, STK35, TNK2, UHMK1, ULK1, WEE1 | Total no. kinase hits: 42

CC(C)S(=O)(=O)c1ccccc1Nc1nc(Nc2ccc(N3CCN(CCOCCOCCC(=O)NCCNc4cccc5c4CN(C4CCC(=O)NC4=O)C5=O)CC3)cc2)ncc1Cl (stereo not shown) [TL13-97, 3-(2-(2-(4-(4-((5-chloro-4-((2-(isopropylsulfonyl)phenyl)amino)pyrimidin-2-yl)amino)phenyl)piperazin-1-yl)ethoxy)ethoxy)-N-(2-((2-(2,6-dioxopiperidin-3-yl)-1-1722 oxoisoindolin-4-yl)amino)ethyl)propenamide]
kinases the bifunctional compound degrades: AAK1, ABL2, AURKA, AURKB, BLK, BUB1B, CDK13, CDK17, CDK2, CDK4, CDK5. CDK6. CDK7. CDK9. FER, ITK, LCK, LIMK1, LIMK2, MAP3K11, MARK4, PLK4, PRKAA1, RPS6KA1, SRC. STK10, STK38, TEC, TNK2, ULK1, ULK3, and WEE1 | Kinase hits: AAK1, ABL2, AURKA, AURKB, BLK, BUB1B, CDK13, CDK17, CDK2, CDK4, CDK5, CDK6, CDK7, CDK9, FER, ITK, LCK, LIMK1, LIMK2, MAP3K11, MARK4, PLK4, PRKAA1, RPS6KA1, SRC, STK10, STK38, TEC, TNK2, ULK1, ULK3, WEE1 | Total no. kinase hits: 32

CC(C)S(=O)(=O)c1ccccc1Nc1nc(Nc2ccc(N3CCN(CCOCCOCCOCCNC(=O)CNc4ccc5c(c4)C(=O)N(C4CCC(=O)NC4=O)C5=O)CC3)cc2)ncc1Cl (stereo not shown) [SK-3-89]
kinases the bifunctional compound degrades: AAK1, AURKA, BLK, CDK12, CDK17, CDK2, CDK4, CDK5, CDK6, CDK7, CDK9, FER, ITK, LCK, LIMK2, PTK2B, STK10, and WEE1 | Kinase hits: AAK1, AURKA, BLK, CDK12, CDK17, CDK2, CDK4, CDK5, CDK6, CDK7, CDK9, FER, ITK, LCK, LIMK2, PTK2B, STK10, WEE1 | Total no. kinase hits: 18

C[C@@H]1C[C@@H](O)c2ncnc(N3CCN(C(=O)[C@H](CNCCCCCCCCCCc4cccc5c4C(=O)N(C4CCC(=O)NC4=O)C5=O)c4ccc(Cl)cc4)CC3)c21 (stereo partly shown) [INY-03-041-01]
Kinase hits: AKT1, AKT2, AKT3, CDK4, MAPK6, STK17A | Total no. kinase hits: 6

Cc1ncsc1-c1ccc([C@H](C)NC(=O)[C@@H]2C[C@@H](O)CN2C(=O)[C@@H](NC(=O)CCCCOc2ccccc2-c2ccc3nc(-c4cccnc4N)n(-c4ccc(C5(N)CCC5)cc4)c3n2)C(C)(C)C)cc1 [INY-04-125-01]
kinases the bifunctional compound degrades: LATS1 and STK17A | Kinase hits: LATS1, STK17A | Total no. kinase hits: 2

CS(=O)(=O)c1ccc(-c2cccn3nc(Nc4cccc(N5CCN(CCCCCCNC(=O)COc6cccc7c6C(=O)N(C6CCC(=O)NC6=O)C7=O)CC5)c4)nc23)cc1 (stereo not shown) [JWG-120]
kinases the bifunctional compound degrades: AAK1 and AURKA | Kinase hits: AAK1, AURKA | Total no. kinase hits: 2

Cc1cc(Nc2ncc(Br)c(Nc3cccc(F)c3C(N)=O)n2)ccc1S(=O)(=O)NCCOCCOCCOCCOCCNc1cccc2c1C(=O)N(C1CCC(=O)NC1=O)C2=O (stereo not shown) [TMX-02-174]
Kinase hits: AAK1, AURKA, AURKB, CDK1, CDK12, CDK16, CDK17, CDK2, CDK5, CDK7, CDK9, CLK1, FER, GSK3A, GSK3B, IRAK3, MAP3K11, MAPK8, MAPK9, NEK1, NEK3, NEK4, NEK9, NUAK1, PRKAA1, PRKAA2, PTK2, PTK2B, RPS6KA1, RPS6KA3, RPS6KA4, STK33, STK35, STK38, TBK1, TEC, TTK, WEE1 | Total no. kinase hits: 37

Cc1c(NC(=O)c2ccc(C(C)(C)C)cc2)cccc1-c1cn(C)c(=O)c(Nc2ccc(C(=O)N3CCN(CCCCCCNC(=O)CNc4cccc5c4C(=O)N(C4CCC(=O)NC4=O)C5=O)CC3)cc2)n1 (stereo not shown) [DD.03.171]
logFC (BTK (Q06187-2), experiment wp055): −3.077 | logFC of BTK (Q06187-2) (Experiment wp055): −3.077

Cc1ccc(C(=O)Nc2ccc(CN3CCN(CCOCCOCCNC(=O)CNc4cccc5c4C(=O)N(C4CCC(=O)NC4=O)C5=O)CC3)c(C(F)(F)F)c2)cc1C#Cc1cnc2cccnn12 (stereo not shown) [TL13-150]
Kinase hits: BLK, CDK5, FER, GAK, IRAK1, LCK, MAP4K2, MAPK14, RIPK1, SRC | Total no. kinase hits: 10

O=C(COc1cccc2c1C(=O)N(C1CCC(=O)NC1=O)C2=O)NCCCCCCCN1CCc2cc(Nc3ncc(C4CC4)c(NCCCNC(=O)C4CCC4)n3)ccc2C1 (stereo not shown) [BSJ-04-178]
kinases the bifunctional compound degrades: AAK1, AURKA, AURKB. BMP2K, CDK10, CDK9, GAK, MARK2, MARK3, MARK4, SIK2, STK17A, STK17B, SNRK, ULK1, and WEE1 | Kinase hits: AAK1, AURKA, AURKB, BMP2K, CDK10, CDK9, GAK, MARK2, MARK3, MARK4, SIK2, STKI7A, STK17B, SNRK, ULK1, WEE1 | Total no. kinase hits: 16

C=CCn1c(=O)c2cnc(Nc3ccc(N4CCN(CCCNc5cccc6c5C(=O)N(C5CCC(=O)NC5=O)C6=O)CC4)cc3)nc2n1-c1cccc(C(C)(C)O)n1 (stereo not shown) [ZNL-02-096]
Kinase hits: COQ8A, MKNK2, PAK4, PDK1, PDK2, PDK3, PRKCI, TBCK, WEE1 | Total no. kinase hits: 9

Cc1ncsc1-c1ccc([C@H](C)NC(=O)[C@@H]2C[C@@H](O)CN2C(=O)[C@@H](NC(=O)CCCCCCc2ccc(Nc3ncc4c(n3)-c3ccccc3NC(=O)N4)cc2)C(C)(C)C)cc1 [JWG-148]
kinases the bifunctional compound degrades: ABL2, EPHB2, SIK2, and TYK2 | Kinase hits: ABL2, EPHB2, SIK2, TYK2 | Total no. kinase hits: 4

NC(=O)c1c(F)cccc1Nc1nc(NC2CCN(S(=O)(=O)CCNC(=O)CCCCCCCCOc3cccc4c3C(=O)N(C3CCC(=O)NC3=O)C4=O)CC2)ncc1Br (stereo not shown) [TMX-01-160-1]
Kinase hits: AURKA, CDK1, CDK12, CDK16, CDK17, CDK2, CDK4, CDK5, CDK6, CDK7, CDK9, MAPK10, MAPK8, MAPK9, RPS6KA1 | Total no. kinase hits: 15

CC(=O)c1c(C)c2cnc(Nc3ccc(N4CCN(CCCCNC(=O)CNc5cccc6c5C(=O)N(C5CCC(=O)NC5=O)C6=O)CC4)cn3)nc2n(C2CCCC2)c1=O (stereo not shown) [BSJ-01-147]
Kinase hits: CDK4, CDK6, WEE1 | Total no. kinase hits: 3

Cc1c(NC(=O)c2ccc(C(C)(C)C)cc2)cccc1-c1cn(C)c(=O)c(Nc2ccc(C(=O)N3CCN(CCCCCCNC(=O)COc4cccc5c4C(=O)N(C4CCC(=O)NC4=O)C5=O)CC3)cc2)n1 (stereo not shown) [DD-04-118]
Kinase hits: BTK | Total no. kinase hits: 1
